Test results taken from patent US20230416261A1, “ETHANEDIAMINE-HETEROCYCLE DERIVATIVES AS INHIBITORS OF PROTEIN ARGININE METHYLTRANSFERASES” (Board of Regents, The University of Texas System, priority 2021, published 2023).

Experiments:
[1] = biological target: T1, PRMT1 (Homo sapiens, UniProt Q99873); test: PRMT1 Enzymatic Assay (LANCE TR-FRET, methylation of histone H4 at Arg3); type: biochemical; parameters: purchased SignalChem P365-380G; details: PRMT1 1.5 nM, SAM 1 μM, biotinylated histone H4 (1-21) 25 nM; read-out: PRMT-1 IC50
T1 sequence (Q99873 whole entry): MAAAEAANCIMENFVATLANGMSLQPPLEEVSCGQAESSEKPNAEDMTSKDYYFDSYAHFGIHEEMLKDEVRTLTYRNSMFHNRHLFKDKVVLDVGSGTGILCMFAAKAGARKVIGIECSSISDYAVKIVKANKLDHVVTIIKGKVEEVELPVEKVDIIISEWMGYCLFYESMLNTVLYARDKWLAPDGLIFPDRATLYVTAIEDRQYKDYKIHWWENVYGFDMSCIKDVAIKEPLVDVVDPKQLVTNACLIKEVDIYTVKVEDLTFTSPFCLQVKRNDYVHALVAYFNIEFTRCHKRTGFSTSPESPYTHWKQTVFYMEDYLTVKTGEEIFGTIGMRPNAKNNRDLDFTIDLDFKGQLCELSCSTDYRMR
Procedure, shortened: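 PRMT1 (1.5 nM) preincubated 15 min with compound at room temperature, then reacted 1 h with 1 μM SAM and 25 nM biotinylated histone H4 (1-21) in 50 mM Hepes pH 8, 1 mM TCEP, 0.003% Tween-20. H4R3me detected by TR-FRET (665/620 nm ratio); IC50 from four-parameter logistic fit.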

[2] = test system: DOHH2 cells; test: DOHH2 Long Term Phenotypic Assay (7 days, Cell Titer-Glo viability); type: cell-based; details: Homo sapiens, DOHH-2, 168 h, Cell Titer-Glo 2.0
Procedure, shortened: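 DOHH2 lymphoma cells (250 per well) in RPMI-1640 with 10% FBS were exposed to 1:3 serially diluted compounds for 7 days at 37 °C, 5% CO2. Viability was read by CellTiter-Glo 2.0 luminescence, and IC50 values came from four-parameter logistic fits.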

[3] = biological target: T1, PRMT1; test: PRMT1 RKO Cellular Target Engagement Assay (In-Cell Western, asymmetric di-methyl arginine); type: cell-based; details: RKO cells, 48 hr compound incubation; read-out: RKO IC50 (PRMT-1 Target Engagement)
Procedure, shortened: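 RKO cells (1,000/well) received 1:3 serially diluted compound for 48 h at 37 °C, then were fixed, permeabilised and immunostained for asymmetric di-methyl arginine by In-Cell Western. The 800 nm antibody signal was normalised to CellTag 700 nm; IC50 from four-parameter logistic fit.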

[4] = test system: PATC53 cells; test: PATC53 Long Term Phenotypic Assay (14 days, crystal violet viability); type: cell-based; details: 336 h
Description: PATC53 cells were derived from the PATC53 PDX model and kindly provided by Jason Fleming (MDACC). The cells were routinely maintained in DMEM/F12 Medium (Corning, Catalog #10-090-CV) supplemented with 10% fetal bovine serum (Sigma, Catalog #F2442), 100 units/mL penicillin and 100 μg/mL streptomycin (Gibco, Catalog #15140-122) in a humidified incubator (37° C., 5% CO2). Prior to the assay, cells were seeded onto a 12-well, TC treated plate (Corning, catalog #353043) at a density of 250 cells per well in a volume of 1 mL. The plate was incubated for 24 hours at 37° C. and 5% CO2. Stock solutions of the test compounds were prepared in 100% DMSO (Sigma, Catalog #D2650) and serially diluted 1:3 using 100% DMSO. Compounds were additionally diluted 1:100 in culture medium, and 110 μL/well was transferred to the tissue culture plate. Following the compound addition, the plate was incubated at 37° C. and 5% CO2 for 14 days. Viability was then assessed by crystal violet staining (Fisher Scientific, Catalog #C58125) as follows: 450 μL of crystal violet (1 mg/mL) was added to the plate for a 10 minute incubation at room temperature. After incubation, the plate was washed 3× with distilled water to remove excess dye and allowed to dry overnight. The crystal violet was solubilized using 10% HOAc (500 μL) for 10 minutes at room temperature, while shaking. A volume of 100 μL was then transferred to a 96-well SpectraPlate (Perkin Elmer, Catalog #6005649). Absorbance at 590 nm was measured with a BioTek Synergy Neo. IC50 values were calculated using a four-parameter logistic curve fit using Genedata Screener software.

SMILES | IC50 [1] | IC50 [3] | IC50 [2] | IC50 [4]
CNCCN(C)Cc1nn2c(c1C1CCC(COC)(COC)CC1)CN(C(=O)C1CC1)CC2 [Example 5, (3-(4,4-bis(methoxymethyl)-cyclohexyl)-2-((methyl(2-(methylamino)ethyl)amino)-methyl)-6,7-dihydropyrazolo-[1,5-a]pyrazin-5(4H)-yl)-(cyclopropyl)methanone] | 34 nM | 121 nM | 81 nM | 58 nM
COCC1(COC)CCC(c2c(CN(C)CCN)nn3c2CN(C(=O)C2CC2)CC3)CC1 [Example 6, (2-(((2-aminoethyl)(methyl)-amino)methyl)-3-(4,4-bis-(methoxymethyl)cyclohexyl)-6,7-dihydropyrazolo[1,5-a]-pyrazin-5(4H)-yl)-(cyclopropyl)methanone] | 14 nM | 361 nM | 138 nM | 147 nM
CNCCN(C)Cc1nn2c(c1C1CCC(COC)(COC)CC1)CN(C(=O)C(C)(C)C)CC2 [Example 8, 1-(3-(4,4-bis(methoxy-methyl)cyclohexyl)-2-((methyl(2-(methylamino)-ethyl)amino)methyl)-6,7-dihydropyrazolo[1,5-a]-pyrazin-5(4H)-yl)-2,2-dimethylpropan-1-one] | 36 nM | 913 nM | 67 nM | 100 nM
COCC1(COC)CCC(c2c(CN(C)CCN)nn3c2CN(C(=O)C2CCC2)CC3)CC1 [Example 11, (2-(((2-aminoethyl)(methyl)-amino)methyl)-3-(4,4-bis-(methoxymethyl)cyclohexyl)-6,7-dihydropyrazolo[1,5-a]-pyrazin-5(4H)-yl)-(cyclobutyl)methanone] | 16 nM | 1210 nM | 111 nM | 70 nM
CNCCN(C)Cc1nn2c(c1C1CCC(COC)(COC)CC1)CN(C(=O)C1(F)CC1)CC2 [Example 13, (3-(4,4-bis(methoxymethyl)-cyclohexyl)-2-((methyl(2-(methylamino)ethyl)amino)-methyl)-6,7-dihydropyrazolo-[1,5-a]pyrazin-5(4H)-yl)(1-fluorocyclopropyl)methanone] | 56 nM | 225 nM | 150 nM | 38 nM
CNCCN(C)Cc1nn2c(c1C1CCC(COC)(COC)CC1)CN(C(=O)C1(OC)CC1)CC2 [Example 14, (3-(4,4-bis(methoxymethyl)-cyclohexyl)-2-((methyl(2-(methylamino)ethyl)amino)-methyl)-6,7-dihydropyrazolo-[1,5-a]pyrazin-5(4H)-yl)(1-methoxycyclopropyl)-methanone] | 94 nM | 124 nM | 211 nM | 478 nM
CNCCN(C)Cc1nn2c(c1C1CCC(COC)(COC)CC1)CN(C(=O)C1(C#N)CC1)CC2 [Example 15, 1-(3-(4,4-bis(methoxy-methyl)cyclohexyl)-2-((methyl(2-(methylamino)-ethyl)amino)methyl)-4,5,6,7-tetrahydropyrazolo[1,5-a]-pyrazine-5-carbonyl)cyclopropane-1-carbonitrile] | 71 nM | 370 nM | 211 nM | 732 nM
CNCCN(C)Cc1nn2c(c1C1CCC(COC)(COC)CC1)CN(C(=O)C1(C)COC1)CC2 [Example 16, (3-(4,4-bis(methoxymethyl)-cyclohexyl)-2-((methyl(2-(methylamino)ethyl)amino)-methyl)-6,7-dihydropyrazolo-[1,5-a]pyrazin-5(4H)-yl)(3-methyloxetan-3-yl)methanone] | 64 nM | 370 nM | 160 nM | 209 nM
CNCCN(C)Cc1nn2c(c1C1CCC(COC)(COC)CC1)CN(C(=O)C1(C(F)(F)F)CC1)CC2 [Example 18, (3-(4,4-bis(methoxymethyl)-cyclohexyl)-2-((methyl(2-(methylamino)ethyl)amino)-methyl)-6,7-dihydropyrazolo-[1,5-a]pyrazin-5(4H)-yl)(1-(trifluoro-methyl)cyclopropyl)-methanone] | 60 nM | 137 nM | 142 nM | 48 nM
CNCCN(C)Cc1nn2c(c1C1CCC(COC)(COC)CC1)CN(C(=O)C1(C)CCC1)CC2 [Example 19, (3-(4,4-bis(methoxymethyl)-cyclohexyl)-2-((methyl(2-(methylamino)ethyl)amino)-methyl)-6,7-dihydropyrazolo-[1,5-a]pyrazin-5(4H)-yl)(1-methylcyclobutyl)methanone] | 52 nM | 214 nM | 87 nM | 37 nM

More lines, main results first:

IC50 [1] | IC50 [3] | SMILES | IC50 [2] | IC50 [4]
62 nM | 239 nM | CNCCN(C)Cc1nn2c(c1C1CCC(COC)(COC)CC1)CN(C(=O)C13CC(C1)C3)CC2 [Example 20, bicyclo[1.1.1]pentan-1-yl(3-(4,4-bis(methoxymethyl)-cyclohexyl)-2-((methyl(2-(methylamino)ethyl)amino)-methyl)-6,7-dihydropyrazolo-[1,5-a]pyrazin-5(4H)-yl)-methanone] | 103 nM | 50 nM
53 nM | 185 nM | CNCCN(C)Cc1nn2c(c1C1CCC(COC)(COC)CC1)CN(C(=O)C13CC(F)(C1)C3)CC2 [Example 21, (3-(4,4-bis(methoxymethyl)-cyclohexyl)-2-((methyl(2-(methylamino)ethyl)amino)-methyl)-6,7-dihydropyrazolo-[1,5-a]pyrazin-5(4H)-yl)(3-fluorobicyclo[1.1.1]pentan-1-yl)methanone] | 96 nM | 68 nM
137 nM | 382 nM | CNCCN(C)Cc1nn2c(c1C1CCC(COC)(COC)CC1)CN(C(=O)C1(C(C)(F)F)COC1)CC2 [Example 23, (3-(4,4-bis(methoxymethyl)-cyclohexyl)-2-((methyl(2-(methylamino)ethyl)amino)-methyl)-6,7-dihydropyrazolo-[1,5-a]pyrazin-5(4H)-yl)(3-(1,1-difluoroethyl)oxetan-3-yl)methanone] | 147 nM | 264 nM
76 nM | 254 nM | CNCCN(C)Cc1nn2c(c1C1CCC(COC)(COC)CC1)CN(C(=O)C(C)C)CC2 [Example 24, 1-(3-(4,4-bis(methoxy-methyl)cyclohexyl)-2-((methyl(2-(methylamino)-ethyl)amino)methyl)-6,7-dihydropyrazolo[1,5-a]-pyrazin-5(4H)-yl)-2-methylpropan-1-one] | 103 nM | 69 nM
82 nM | 419 nM | CNCCN(C)Cc1nn2c(c1C1CCC(COC)(COC)CC1)CN(C(=O)C13CC(OC)(C1)C3)CC2 [Example 25, (3-(4,4-bis(methoxymethyl)-cyclohexyl)-2-((methyl(2-(methylamino)ethyl)amino)-methyl)-6,7-dihydropyrazolo-[1,5-a]pyrazin-5(4H)-yl)(3-methoxybicyclo[1.1.1]pentan-1-yl)methanone] | 150 nM | 203 nM
59 nM | 318 nM | CNCCN(C)Cc1nn2c(c1C1CCC(COC)(COC)CC1)CN(C(=O)CC1CC1)CC2 [Example 27, 1-(3-(4,4-bis(methoxy-methyl)cyclohexyl)-2-((methyl(2-(methylamino)-ethyl)amino)methyl)-6,7-dihydropyrazolo[1,5-a]-pyrazin-5(4H)-yl)-2-cyclopropylethan-1-one] | 79 nM | 115 nM
139 nM | 907 nM | CNCCN(C)Cc1nn2c(c1C1CCC(COC)(COC)CC1)CN(C(=O)C1(OC)CCC1)CC2 [Example 28, (3-(4,4-bis(methoxymethyl)-cyclohexyl)-2-((methyl(2-(methylamino)ethyl)amino)-methyl)-6,7-dihydropyrazolo-[1,5-a]pyrazin-5(4H)-yl)(1-methoxycyclobutyl)-methanone] | 207 nM | 435 nM
